Results: patent US12686674B2, “Crystal form of compound represented by formula I, and preparation therefor and application thereof” (Shanghai Zhimeng Biopharma, Inc., priority 2021, dated 2026)

Assay: Hygroscopicity by DVS at 25° C.
Assay type: physicochemical
Experimental: Hygroscopicity data of samples were collected using an ADVENTURE series dynamic vapor phase adsorption system (DVS) under N2 protection. Sample dosage ~30 mg. The testing method for anhydrous crystal form is as follows: • 1) Relative humidity increase process: 0% RH to 90% RH at a rate of 10% RH/stage; 90% RH to 95% RH at a rate of 5% RH/stage; • 2) Relative humidity reduction process: 95% RH to 90% RH at a rate of 5% RH/stage; 90% RH to 5% RH at a rate of 10% RH/stage. H Nuclear Magnetic Resonance Spectroscopy (H-NMR)

## O=C1CO[C@H](c2cn(-c3ccc(Br)cc3)nc2-c2ccc(F)cc2)N1CCc1ccc2[nH]c(=O)[nH]c2c1 [Crystal form A]
DVS at 25° C.
  hygroscopicity: hardly hygroscopic
At 80% RH, 25° C.
  weight gain (DVS): 0.14%
Before and after DVS test
  crystal form after DVS testing (XRPD): unchanged
